Experimental data reported in ChEMBL document CHEMBL3132767, “Validation of host factors of HIV integration as novel drug targets for anti-HIV therapy” (Medchemcomm, 2014).

Key:
[1] = Selectivity index, ratio of CC50 for human MT4 cells to EC50 for HIV1 3B infected in human MT4 cells; type: toxicity, cell-based; conditions: MT4 cells (uninfected for CC50; HIV-1 3B infected for EC50)
[2] = Cytotoxicity against human MT4 cells by MTT assay; type: cell-based
[3] = test system: Human immunodeficiency virus 1; test: Antiviral activity against HIV1 3B infected in human MT4 cells assessed as inhibition of viral replication by MTT assay; type: functional, organism-based; conditions: Human immunodeficiency virus 1, 3B
[4] = test system: Human immunodeficiency virus 1; test: Inhibition of LEDGF/p75-HIV1 integrase interaction at 100 uM by Alphascreen assay

| inhibition [4] | SMILES | selectivity ratio [1] | CC50 [2] | EC50 [3] |
| --- | --- | --- | --- | --- |
|  | O=C(O)Cc1c(-c2ccccc2)c2cc(Cl)ccc2[nH]c1=O | > 3 | > 150 µM | 41.9 µM |
|  | CCCC(C(=O)O)c1cnc2sc(C)cc2c1-c1ccc(C)cc1 (stereo not drawn) | 95 | 72.2 µM | 0.76 µM |
| 36% | Cn1c(=O)c(/C(=N/c2ccccc2)c2nnn[nH]2)c(O)c2ccccc21 |  |  |  |
|  | CCCC(C(=O)O)c1c(-c2ccccc2)c2cc(Cl)ccc2n(CCC)c1=O (stereo not drawn) | 6 | 64.4 µM | 10.8 µM |
|  | Cc1ccc(-c2c(C(OC(C)(C)C)C(=O)O)cnc3sc(C)cc23)cc1 (stereo not drawn) | 1390 | 96 µM |  |
|  | CCCC(C(=O)O)c1c(C)nc2ccc(Cl)cc2c1-c1ccccc1 (stereo not drawn) | 25 | 67.3 µM | 2.35 µM |
|  | C=CCC(C(=O)O)c1c(-c2ccccc2)c2cc(Cl)ccc2[nH]c1=O (stereo not drawn) | 6 | 67.3 µM | 12.4 µM |
